Key:
[1] = target: T1, 6-phosphofructo-1-kinase (PFK) (Rattus norvegicus, UniProt P30835); assay: PFK stimulation, aldolase-coupled spectrophotometric assay; assay type: biochemical; conditions: stimulation of purified rat liver 6-phosphofructo-1-kinase; 0.2 mM fructose-6-phosphate, pH 7.3, 30° C.; read-out: PFK ED50
T1 construct: purified rat liver 6-phosphofructo-1-kinase; from tissue; host or cells: rat liver
T1 sequence (P30835 2-780 limits assumed): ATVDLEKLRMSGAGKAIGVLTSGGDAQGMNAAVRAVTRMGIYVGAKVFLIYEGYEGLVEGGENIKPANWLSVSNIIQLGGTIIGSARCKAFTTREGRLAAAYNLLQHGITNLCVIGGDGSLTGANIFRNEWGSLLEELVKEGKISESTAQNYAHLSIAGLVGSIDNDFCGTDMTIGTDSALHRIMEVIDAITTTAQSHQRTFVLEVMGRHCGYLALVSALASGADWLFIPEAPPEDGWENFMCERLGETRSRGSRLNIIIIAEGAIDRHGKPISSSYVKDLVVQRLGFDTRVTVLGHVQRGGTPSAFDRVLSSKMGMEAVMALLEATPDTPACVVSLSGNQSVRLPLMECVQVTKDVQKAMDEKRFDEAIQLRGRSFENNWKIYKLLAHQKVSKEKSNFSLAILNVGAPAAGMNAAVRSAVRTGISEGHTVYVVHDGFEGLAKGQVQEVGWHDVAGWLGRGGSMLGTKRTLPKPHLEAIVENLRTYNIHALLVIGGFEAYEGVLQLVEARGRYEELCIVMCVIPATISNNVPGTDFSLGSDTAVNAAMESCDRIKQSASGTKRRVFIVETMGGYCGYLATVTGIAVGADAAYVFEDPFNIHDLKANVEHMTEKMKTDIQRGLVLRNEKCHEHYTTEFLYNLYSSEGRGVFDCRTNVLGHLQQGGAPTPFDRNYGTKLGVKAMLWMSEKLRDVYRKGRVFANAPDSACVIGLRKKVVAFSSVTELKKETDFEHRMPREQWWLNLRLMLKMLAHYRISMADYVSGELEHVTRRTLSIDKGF
Description: (§1) The novel compounds of this invention were tested for their ability to stimulate the enzyme 6-phosphofructo-1-kinase ("PFK") and for their ability to inhibit the enzyme fructose-1,6-bisphosphatase ("FBP") using the procedures described below.
Effects on the activity of PFK were determined using an aldolase-coupled, spectrophotometric assay. The assay mixture contained: […] N-tris-(hydroxymethyl)-methyl-2-aminoethanesulfonic acid, hydrochloride ("TES-HCl", pH 7.3); 1 mM ethylenediaminetetraacetic acid ("EDTA"); 6 mM magnesium chloride; 2.5 mM dithiothreitol; 0.165 mM nicotinamide adenine dinucleotide ("NADH"); 1 mM adenosine triphosphate ("ATP"); 0.04 U aldolase; 0.4 U triose phosphate isomerase; alpha-glycerolphosphate dehydrogenase (1.5 U/ml); 0.1 U of purified rat liver 6-phosphofructo-1-kinase; and various concentrations of the test compound, all in a final volume of 1 ml. The mixture was preincubated for 3 minutes at 30° C. and then the reaction was initiated with 0.2 mM fructose-6-phosphate. The rate of decrease in absorbance at 340 nm was measured at 30° C. with a recording spectrophotometer.

[2] = target: T2, fructose-1,6-bisphosphatase (FBP) (Rattus norvegicus, UniProt P19112); assay: FBP inhibition, spectrophotometric assay; assay type: biochemical; conditions: inhibition of purified rat liver FBP; 0.02 mM fructose-1,6-bisphosphate, pH 7.4, 30° C.
T2 construct: purified rat liver FBP; from tissue; host or cells: rat liver
T2 sequence (P19112 2-363 limits assumed): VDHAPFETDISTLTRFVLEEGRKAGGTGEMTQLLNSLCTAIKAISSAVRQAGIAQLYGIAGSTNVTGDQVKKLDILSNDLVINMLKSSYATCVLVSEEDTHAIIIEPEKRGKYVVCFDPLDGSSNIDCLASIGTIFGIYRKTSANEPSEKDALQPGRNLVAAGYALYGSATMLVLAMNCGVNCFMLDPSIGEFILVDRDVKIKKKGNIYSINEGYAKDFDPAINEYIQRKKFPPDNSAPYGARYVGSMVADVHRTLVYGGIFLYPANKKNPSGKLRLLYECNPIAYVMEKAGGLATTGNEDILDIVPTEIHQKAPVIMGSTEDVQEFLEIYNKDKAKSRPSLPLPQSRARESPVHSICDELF
Description: as §1
Effects on the activity of FBP were determined using a spectrophotometric assay. The assay mixture contained 100 mM tris(hydroxymethyl)aminomethane,hydrochloride ("TRIS-HCl", pH 7.4); 2.5 mM betamercaptoethanol; 2 mM magnesium chloride; 0.05 mM EDTA; 0.2 mM nicotinamide adenine dinucleotide phosphate ("NADP"); 10 U phosphoglucose isomerase; 5 U glucose-6-phosphatedehydrogenase; 0.02 U of purified rat liver FBP; and various concentrations of the test compound, all in a final volume of 1 ml. The mixture was preincubated for 3 minutes at 30° C. and then the reaction was initiated with 0.02 mM fructose-1,6-bisphosphate. The rate of increase in absorbance at 340 nm was measured at 30° C. with a recording spectrophotometer.

| Compound | EC50 [1] | IC50 [2] |
| --- | --- | --- |
| O=P(O)(O)CCC[C@@H]1O[C@H](COP(=O)(O)O)[C@@H](O)[C@@H]1O [4,7-Anhydro-1,2,3-trideoxy-1-(dihydroxyphosphinyl)-D-gluco-octitol, 8-(dihydrogen phosphate)] | 12 µM | – |
| O=P(O)(O)C[C@]1(CO)O[C@H](COP(=O)(O)O)[C@@H](O)[C@@H]1O [2,5-Anhydro-1-deoxy-2-C-(hydroxymethyl)-1-phosphono-D-glucitol, 6-(dihydrogen phosphate)] | 12 µM | 240 µM |
| O=P(O)(O)CC[C@H]1O[C@H](COP(=O)(O)O)[C@@H](O)[C@@H]1O [3,6-Anhydro-1,2-dideoxy-1-phosphono-D-manno-heptitol, 7-(dihydrogen phosphate)] | 6 µM | 80 µM |
| O=P(O)(O)C[C@H]1O[C@H](COP(=O)(O)O)[C@@H](O)[C@@H]1O [2,5-Anhydro-1-deoxy-1-phosphono-D-mannitol, 6-(dihydrogen phosphate)] | 4 µM | 58 µM |
| O=P(O)(O)C[C@@H]1O[C@H](COP(=O)(O)O)[C@@H](O)[C@@H]1O [2,5-Anhydro-1-deoxy-1-phosphono-D-glucitol, 6-(dihydrogen phosphate)] | 20 µM | 602 µM |
| O=P(O)(O)C[C@@]1(CO)O[C@H](COP(=O)(O)O)[C@@H](O)[C@@H]1O [2,5-Anhydro-1-deoxy-2-C-(hydroxymethyl)-1-phosphono-D-mannitol, 6-(dihydrogen phosphate)] | 6 µM | 393 µM |
| O=P(O)(O)CCC[C@H]1O[C@H](COP(=O)(O)O)[C@@H](O)[C@@H]1O [4,7-anhydro-1,2,3-trideoxy-1-(dihydroxyphosphinyl)-D-manno-octitol, 8-(dihydrogen phosphate)] | 27 µM | 200 µM |

Source: US4945158A, “Antidiabetic phosphonates” (American Cyanamid Company, priority 1988, dated 1990)
